Data published in US20240262830A1, “IRE1A MODULATORS AND USES THEREOF” (Nimbus Iaso, Inc., priority 2020, published 2024).

Key:
[1] = target: T1, truncated human IRE1a WT protein, containing the catalytic part (aa 547-977) (Homo sapiens, UniProt O75460); assay: IRE1a biochemical enzyme splice assay; details: 20 nM protein, 500 nM fluorescently quenched IRE1a substrate, 40 min at room temperature; read-out: EnzymeSplice_hIRE1a_IC50 (IC50)
T1 construct: containing the catalytic part (aa 547-977); made in house
T1 sequence (O75460 547-977): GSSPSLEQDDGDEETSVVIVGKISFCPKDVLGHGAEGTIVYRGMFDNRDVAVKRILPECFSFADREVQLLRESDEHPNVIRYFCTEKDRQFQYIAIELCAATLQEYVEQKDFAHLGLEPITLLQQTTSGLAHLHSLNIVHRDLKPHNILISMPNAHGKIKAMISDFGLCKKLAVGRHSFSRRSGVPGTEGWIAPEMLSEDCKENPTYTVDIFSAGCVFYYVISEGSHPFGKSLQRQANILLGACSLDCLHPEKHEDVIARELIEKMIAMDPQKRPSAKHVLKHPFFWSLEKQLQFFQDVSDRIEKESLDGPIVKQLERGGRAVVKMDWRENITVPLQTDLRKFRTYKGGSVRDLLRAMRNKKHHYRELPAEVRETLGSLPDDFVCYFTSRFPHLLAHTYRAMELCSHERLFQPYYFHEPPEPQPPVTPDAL
Procedure: A truncated human IRE1a WT protein, containing the catalytic part (aa 547-977) was expressed in baculovirus. The purified protein (20 nM) was incubated with a fluorescently quenched IRE1a substrate (500 nM; 5′/6-FAM-CAGUCCGCAGCACUG-BHQ-1/3′) and a titration of inhibitor, starting at 10 μM (final DMSO concentration=1%) for 40 min at room temperature in assay buffer. Reactions were carried out in a final volume of […] in a 384 well assay plate. The reaction was stopped, and the plate was spun for 1 minute at 1000 rpm. The fluorescence intensity of the IRE1a-substrate was measured using an fluorescent plate reader (Ex 485 nm/Em 535 nm, Perkin Elmer Envision).

hIRE1a = assay: XBP1-Luc cell assay; format: cell-based; details: Homo sapiens; HEK293-pLVX-XBP1.fluc-IRES-Puro cells, 600 nM Thapsigargin 1 hour, then inhibitor 6 hours; read-out: fLuc_XBP1_hIRE1a_HEK293_IC50 (IC50)
Procedure: HEK293-pLVX-XBP1.fluc-IRES-Puro cells (ChemPartner) were collected into DMEM (Invitrogen, 11995-065) with 10% FBS (BI, 04-002-1A). Cells were seeded at 1.5E4 cells/well in BioCoat Poly-D-Lysine Black/Clear flat bottom 96 well plate (Corning, 356640) and incubated overnight at 37° C. and 5% CO2. Cells were treated with 600 nM Thapsigargin (Sigma, T9033) for 1 hour at 37° C. and 5% CO2 prior to inhibitor addition. A titration of inhibitor, starting at 30 μM was added to wells for an additional 6 hours at 37° C. and 5% CO2. 100 μl of Steady-Glo Luciferase assay reagent (Promega, E2550) was added to plate and the plate was shaken for 2 minutes. Signal was read using EnSpire (Perkin Elmer).

| SMILES | IC50 [1] [nM] | IC50 (hIRE1a) [nM] |
| --- | --- | --- |
| CCc1cc(-c2ccc3c(NS(=O)(=O)c4ccccc4Cl)ncnn23)cc2cnc(NC[C@@H]3CCCNC3)nc12 [Compound I-17, (R)-2-chloro-N-(7-(8-ethyl-2-((piperidin-3-ylmethyl)amino)quinazolin-6-yl)pyrrolo[2,1-f][1,2,4]triazin-4-yl)benzenesulfonamide] | 100 to 1000 | > 10000 |
| CCc1cc(-c2ccc3c(NS(=O)(=O)c4ccccc4Cl)ncnn23)cc2cnc(NC[C@@H]3CCCCN3)nc12 [Compound I-18, (S)-2-chloro-N-(7-(8-ethyl-2-((piperidin-2-ylmethyl)amino)quinazolin-6-yl)pyrrolo[2,1-f][1,2,4]triazin-4-yl)benzenesulfonamide] | 100 to 1000 | > 10000 |
| CCc1cc(-c2ccc3c(NC[C@H](O)CC)ncnn23)cc2cnc(N[C@H]3CCCNC3)nc12 [Compound I-20, (R)-1-((7-(8-ethyl-2-(((S)-piperidin-3-yl)amino)quinazolin-6-yl)pyrrolo[2,1-f][1,2,4]triazin-4-yl)amino)butan-2-ol] | 100 to 1000 | 1000 to 10000 |
| CCc1cc(-c2ccc3c(NS(=O)(=O)c4ccccc4Cl)ncnn23)cc2cnc(N[C@H]3CCCNC3)nc12 [Compound I-22, (S)-2-chloro-N-(7-(8-ethyl-2-(piperidin-3-ylamino)quinazolin-6-yl)pyrrolo[2,1-f][1,2,4]triazin-4-yl)benzenesulfonamide] | < 100 | < 1000 |
| CCc1cc(-c2csc3c(NS(=O)(=O)c4ccccc4Cl)ncnc23)cc2cnc(N[C@H]3CCCNC3)nc12 [Compound I-23, (S)-2-chloro-N-(7-(8-ethyl-2-(piperidin-3-ylamino)quinazolin-6-yl)thieno[3,2-d]pyrimidin-4-yl)benzenesulfonamide] | < 100 | 1000 to 10000 |
| CCc1cc(-c2ccc3c(NS(=O)(=O)Cc4ccccc4Cl)ncnn23)cc2cnc(N[C@H]3CCCNC3)nc12 [Compound I-25, (S)-1-(2-chlorophenyl)-N-(7-(8-ethyl-2-(piperidin-3-ylamino)quinazolin-6-yl)pyrrolo[2,1-f][1,2,4]triazin-4-yl)methanesulfonamide] | < 100 | < 1000 |
| CCc1cc(-c2ccc3c(NS(=O)(=O)c4ccccc4)ncnn23)cc2cnc(N[C@H]3CCCNC3)nc12 [Compound I-26, (S)—N-(7-(8-ethyl-2-(piperidin-3-ylamino)quinazolin-6-yl)pyrrolo[2,1-f][1,2,4]triazin-4-yl)benzenesulfonamide] | < 100 | 1000 to 10000 |
| CCc1cc(-c2ccc3c(NS(=O)(=O)c4ccc(OC(F)(F)F)cc4)ncnn23)cc2cnc(N[C@H]3CCCNC3)nc12 [Compound I-27, (S)—N-(7-(8-ethyl-2-(piperidin-3-ylamino)quinazolin-6-yl)pyrrolo[2,1-f][1,2,4]triazin-4-yl)-4-(trifluoromethoxy)benzenesulfonamide] | 100 to 1000 | 1000 to 10000 |
| CCc1cc(-c2ccc3c(NS(=O)(=O)c4ccccc4Cl)ncnn23)cc2cnc(NC3CC4(COC4)C3)nc12 [Compound I-28, N-(7-(2-((2-oxaspiro[3.3]heptan-6-yl)amino)-8-ethylquinazolin-6-yl)pyrrolo[2,1-f][1,2,4]triazin-4-yl)-2-chlorobenzenesulfonamide] | 100 to 1000 | > 10000 |
| CCc1cc(-c2ccc3c(NS(=O)(=O)c4ccccc4Cl)ncnn23)cc2cnc(N[C@H]3CC[C@H](O)CC3)nc12 [Compound I-29, 2-chloro-N-(7-(8-ethyl-2-(((1r,4r)-4-hydroxycyclohexyl)amino)quinazolin-6-yl)pyrrolo[2,1-f][1,2,4]triazin-4-yl)benzenesulfonamide] | < 100 | 1000 to 10000 |
| CCc1cc(-c2ccc3c(NS(=O)(=O)N4CCCC4)ncnn23)cc2cnc(N[C@H]3CCCNC3)nc12 [Compound I-30, Pyrrolidine-1-sulfonic acid {7-[8-ethyl-2-(piperidin-3-ylamino)-quinazolin-6-yl]-pyrrolo[2,1-f][1,2,4]triazin-4-yl}-amide] | < 100 | < 1000 |
| CCc1cc(-c2ccc3c(NS(=O)(=O)c4ccccc4Cl)ncnn23)cc2cnc(N[C@@H]3CNC[C@H](C)C3)nc12 [Compound I-31] | < 100 | < 1000 |
| CCc1cc(-c2ccc3c(NS(=O)(=O)c4ccccc4Cl)ncnn23)cc2cnc(N[C@H]3CC[C@H](N)CC3)nc12 [Compound I-32] | < 100 | < 1000 |
| CCCS(=O)(=O)Nc1ncnn2c(-c3cc(CC)c4nc(N[C@H]5CCCNC5)ncc4c3)ccc12 [Compound I-33, (S)—N-(7-(8-ethyl-2-(piperidin-3-ylamino)quinazolin-6-yl)pyrrolo[2,1-f][1,2,4]triazin-4-yl)propane-1-sulfonamide] | < 100 | < 1000 |

More lines, now with the values ahead:

| IC50 [1] [nM] | IC50 (hIRE1a) [nM] | SMILES |
| --- | --- | --- |
| < 100 | 1000 to 10000 | CCc1cc(-c2ccc3c(NS(=O)(=O)c4ccccc4Cl)ncnn23)cc2cnc(NC[C@H]3CCCNC3)nc12 [Compound I-8, (S)-2-chloro-N-(7-(8-ethyl-2-((piperidin-3-ylmethyl)amino)quinazolin-6-yl)pyrrolo[2,1-f][1,2,4]triazin-4-yl)benzenesulfonamide] |
| < 100 | 1000 to 10000 | CCc1cc(-c2ccc3c(NS(=O)(=O)CCC(F)(F)F)ncnn23)cc2cnc(N[C@H]3CCCNC3)nc12 [Compound I-9, (S)—N-(7-(8-ethyl-2-(piperidin-3-ylamino)quinazolin-6-yl)pyrrolo[2,1-f][1,2,4]triazin-4-yl)-3,3,3-trifluoropropane-1-sulfonamide] |
| < 100 | 1000 to 10000 | CCc1cc(-c2ccc3c(NS(=O)(=O)c4ccccc4Cl)ncnn23)cc2cnc(N[C@H]3CCNC3)nc12 [Compound I-11, (S)-2-chloro-N-(7-(8-ethyl-2-(pyrrolidin-3-ylamino)quinazolin-6-yl)pyrrolo[2,1-f][1,2,4]triazin-4-yl)benzenesulfonamide] |
| < 100 | < 1000 | CCc1cc(-c2ccc3c(NS(=O)(=O)c4ccccc4Cl)ncnn23)cc2cnc(N[C@H]3CCCCNC3)nc12 [Compound I-12, (S)—N-(7-(2-(azepan-3-ylamino)-8-ethylquinazolin-6-yl)pyrrolo[2,1-f][1,2,4]triazin-4-yl)-2-chlorobenzenesulfonamide] |
| < 100 | > 10000 | CCc1cc(-c2ccc3c(NS(=O)(=O)c4ccccc4Cl)ncnn23)cc2cnc(N[C@H]3CC[C@H](O)C3)nc12 [Compound I-14, 2-chloro-N-(7-(8-ethyl-2-(((1S,3S)-3-hydroxycyclopentyl)amino)quinazolin-6-yl)pyrrolo[2,1-f][1,2,4]triazin-4-yl)benzenesulfonamide] |
| < 100 | < 1000 | CCc1cc(-c2ccc3c(NS(=O)(=O)C4CCCC4)ncnn23)cc2cnc(N[C@H]3CCCNC3)nc12 [Compound I-15, (S)—N-(7-(8-ethyl-2-(piperidin-3-ylamino)quinazolin-6-yl)pyrrolo[2,1-f][1,2,4]triazin-4-yl)cyclopentanesulfonamide] |
| < 100 | < 1000 | CCc1cc(-c2n[nH]c3c(NS(=O)(=O)c4ccccc4Cl)cccc23)cc2cnc(N[C@H]3CCCNC3)nc12 [Compound I-19, (S)-2-chloro-N-(3-(8-ethyl-2-(piperidin-3-ylamino)quinazolin-6-yl)-1H-indazol-7-yl)benzenesulfonamide] |
| < 100 | < 1000 | CCc1cc(-c2ccc3c(NS(=O)(=O)Cc4cccc(F)c4F)ncnn23)cc2cnc(N[C@H]3CCCNC3)nc12 [Compound I-21, (S)-1-(2,3-difluorophenyl)-N-(7-(8-ethyl-2-(piperidin-3-ylamino)quinazolin-6-yl)pyrrolo[2,1-f][1,2,4]triazin-4-yl)methanesulfonamide] |
